# Legend:
# Type in all cases: in vivo, human
# [1] = test system: acute pain in the left side of their neck; assay: Example 11: acute neck pain; conditions: 1.5% in water: propylene glycol 8:2, topical to neck
# Description: A subject who had shoveled heavy snow all day, throwing the snow mostly to left, upon arising from bed the next morning experienced acute pain in the left side of their neck that intensified as they attempted to move their head in any direction.
# [2] = test system: dermatitis of uncertain etiology; assay: Example 32: itch of dermatitis of uncertain etiology
# Method: subject one who had worked planting a new rock and flower garden during the day, in the evening became acutely aware of an itch sensation in the lower back, just below the beltline. […] Itch relief lasted for 2-3 hours; three additional applications were made during the night. […] Etiology was not ascertained.
# [3] = test system: burning itch induced by Mucuna pruriens spicules; assay: Example 38: burning itch induced by Mucuna pruriens; conditions: 10% in lotion
# Method: Pods with beans were obtained from Afro Caribe Botanica, 16 separate specimens. Small round brushes marketed for interdental cleaning were used to collect spicules from the pods. Application to both volar and extensor surfaces of the forearm were made by intense rubbing of the skin with such brush containing spicules. Burning itch developed within 5-7 minutes. […] Participants in this study included the following; • 1. A person. • 2. A person. • 3. A person. • 4. A person. • 5. A person.
# psoriatic arthritis = assay: Example 25: psoriatic arthritis, topical C15
# Description: A subject with a 42 year history of psoriasis, and psoriatic arthritis for the past 8 years, was provided a topical solution of C15 4% in WP 82. […] The subject has used topical formulations of C15 for over 12 weeks, comparing efficacy of 2%, 3.5% and 5% concentrations of C15.
# [4] = test system: cervical and thoracic spine; assay: Example 24: osteoarthritis, spine
# Method: The same subject above topically applied an adhesive dressing, 5 cm wide and 30 cm long, saturated with a solution of C15 4% in WP 82 to the upper spine.
# Over a period of 3 months, subcutaneous injections of 0.6 ml of the above C15 solution were injected subcutaneously into each of 5 intervertebral sites of the cervical and thoracic spine.
smiles,measurement,setting,value
"CCOC(=O)CN(C)C(N)=NC(C)=O [Compound C15, N-acetyl ethyl creatinate]",time to pain relief,[1],≤ 2 min
same,extent of pain relief,[1]; person,neck pain subsided completely and did not return
same,extent of itch relief,"[2]; 4% in water: propylene glycol 8:2, topical",Itch was completely relived
same,duration of itch relief,[2]; 4% topical,2 to 3 h
same,resolution of dermatitis and itch,[2]; three additional applications during the night,The dermatitis and itch resolved early next day
same,persistence of relief,[3],permanent
same,time to complete relief of itch,[3],1 to 2 min
same,extent of itch relief,"[3]; forearm, five participants",complete relief of itch
same,duration of relief,psoriatic arthritis; 4% in WP 82,6 to 24 h
same,relief of pain,"psoriatic arthritis; 4% in WP 82, topical to wrists, hands, fingers and ankles, person","almost instantaneous, complete relief of pain"
same,"comparison of 2%, 3.5% and 5% concentrations",psoriatic arthritis; 5% administered as a spray mist,most effective of the three
same,duration of complete pain relief,psoriatic arthritis; 5% spray mist,24 h
same,time to pain relief,[4]; 4% dressing,within an hour
same,duration of relief,"[4]; 4% dressing, until removed",about 8 hours
same,extent of pain relief,"[4]; adhesive dressing saturated with 4% in WP 82 on upper spine, person",complete relief of pain
same,extent of pain relief,"[4]; subcutaneous 0.6 ml into each of 5 intervertebral sites, five occasions",complete relief of pain
same,duration of relief,"[4]; subcutaneous 0.6 ml, 5 sites",1-4 weeks

# Source: patent US20230218555A1, “CREATINE, ITS DERIVATIVES, COMPOSITIONS AND METHODS OF USE THEREOF” (priority 2021, published 2023)
